According to PubChem BioAssay AID220 (DTP/NCI, 2004):
Where “and” joins values, the source holds several entries; their conditions need not be identical. Identical values can stand only once. Inconclusive results are not listed.

Tested on: CD8F1 mice, subcutaneous mammary adenocarcinoma, T/C%
Experiment: NCI In Vivo Anticancer Drug Screen. Data for tumor model Mammary Adenocarcinoma CD8F1 (subcutaneous) in CD8F1
Conditions: higher = larger tumour
Outline: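 Mice carrying transplanted tumors received test compound, and survival or tumor size was recorded. Each value is the treated-group measurement divided by the corresponding measurement in vehicle-dosed controls.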

[1] = endpoint: median tumor weight (est.), dose: 100.0 mg/kg/injection, schedule: Q07DX005 (ip), vehicle: saline with Tween-80
[2] = endpoint: median tumor weight (est.), dose: 200.0 mg/kg/injection, schedule: Q07DX005 (ip), vehicle: saline with Tween-80
[3] = endpoint: median tumor weight (est.), dose: 32.0 mg/kg/injection, schedule: Q07DX005 (ip), vehicle: saline with Tween-80
[4] = endpoint: median tumor weight (est.), dose: 64.0 mg/kg/injection, schedule: Q07DX005 (ip), vehicle: saline with Tween-80
[5] = endpoint: median tumor weight (est.), dose: 12.5 mg/kg/injection, schedule: Q07DX005 (ip), vehicle: saline
[6] = endpoint: median tumor weight (est.), dose: 50.0 mg/kg/injection, schedule: Q07DX005 (ip), vehicle: saline

## N#Cc1cn(C2OC(CO)C(O)C2O)c2ncnc(N)c12 (stereo not given)
endpoint: median tumor weight (est.), dose: 0.12 mg/kg/injection, schedule: Q07DX005 (ip), vehicle: saline
  T/C: 86 % of control
endpoint: median tumor weight (est.), dose: 0.25 mg/kg/injection, schedule: Q07DX005 (ip), vehicle: saline
  T/C: 53 % of control
endpoint: median tumor weight (est.), dose: 0.5 mg/kg/injection, schedule: Q07DX005 (ip), vehicle: saline
  T/C: 55 % of control
endpoint: median tumor weight (est.), dose: 1.0 mg/kg/injection, schedule: Q07DX005 (ip), vehicle: saline
  T/C: 63 % of control

## CN(C)CCC(=O)C(=Cc1ccc(O)cc1)C(=O)CCN(C)C
endpoint: median tumor weight change, dose: 50.0 mg/kg/injection, schedule: Q01DX001 (ip), vehicle: suspension in saline
  T/C: 96 % of control
endpoint: median tumor weight change, dose: 62.5 mg/kg/injection, schedule: Q01DX001 (ip), vehicle: saline
  T/C: 90 % of control
endpoint: median tumor weight change, dose: 100.0 mg/kg/injection, schedule: Q01DX001 (ip), vehicle: suspension in saline
  T/C: 87 % of control
endpoint: median tumor weight change, dose: 125.0 mg/kg/injection, schedule: Q01DX001 (ip), vehicle: saline
  T/C: 62 % of control

## Nc1nc2c(ncn2C2OC(CO)C(O)C2O)c(=O)[nH]1 (stereo not given)
[1]
  T/C: 86 % of control
[2]
  T/C: 92 % of control
endpoint: median tumor weight (est.), dose: 400.0 mg/kg/injection, schedule: Q07DX005 (ip), vehicle: saline with Tween-80
  T/C: 110 % of control
endpoint: median tumor weight (est.), dose: 800.0 mg/kg/injection, schedule: Q07DX005 (ip), vehicle: saline with Tween-80
  T/C: 88 % of control
endpoint: median tumor weight (est.), dose: 1600.0 mg/kg/injection, schedule: Q07DX005 (ip), vehicle: saline with Tween-80
  T/C: 103 % of control
endpoint: median tumor weight (est.), dose: 3200.0 mg/kg/injection, schedule: Q07DX005 (ip), vehicle: saline with Tween-80
  T/C: 84 % of control

## CC1=CC2C(O)(CC(CO)=CC3C4C(C)(C)C4(OC(=O)c4ccccc4)C(OC(=O)c4ccccc4)C(C)C32O)C1=O (stereo not given)
endpoint: median tumor weight change, dose: 0.63 mg/kg/injection, schedule: Q01DX001 (ip), vehicle: saline with Tween-80
  T/C: 88 % of control
endpoint: median tumor weight change, dose: 1.25 mg/kg/injection, schedule: Q01DX001 (ip), vehicle: saline with Tween-80
  T/C: 58 % of control
endpoint: median tumor weight change, dose: 5.0 mg/kg/injection, schedule: Q01DX001 (ip), vehicle: saline with Tween-80
  T/C: 96 % of control

## CN(C)c1nc(N(C)C)nc(N(C)C)n1
endpoint: mean tumor weight, dose: 75.0 mg/kg/injection, schedule: Q01DX009 (ip), vehicle: saline
  T/C: 64 % of control
endpoint: mean tumor weight, dose: 150.0 mg/kg/injection, schedule: Q01DX009 (ip), vehicle: saline
  T/C: 94 % of control
endpoint: mean tumor weight, dose: 250.0 mg/kg/injection, schedule: Q07DX006 (ip), vehicle: saline
  T/C: 108 % of control
endpoint: mean tumor weight, dose: 300.0 mg/kg/injection, schedule: Q01DX009 (ip), vehicle: saline
  T/C: 8 % of control
endpoint: mean tumor weight, dose: 300.0 mg/kg/injection, schedule: Q07DX006 (ip), vehicle: saline
  T/C: 113 % of control
endpoint: median tumor weight (est.), dose: 12.5 mg/kg/injection, schedule: Q07DX006 (ip), vehicle: saline with Tween-80
  T/C: 100 % of control
endpoint: median tumor weight (est.), dose: 16.0 mg/kg/injection, schedule: Q07DX005 (ip), vehicle: saline with Tween-80
  T/C: 171 % of control
endpoint: median tumor weight (est.), dose: 25.0 mg/kg/injection, schedule: Q07DX005 (ip), vehicle: saline with Tween-80
  T/C: 80 % of control
endpoint: median tumor weight (est.), dose: 25.0 mg/kg/injection, schedule: Q07DX006 (ip), vehicle: saline with Tween-80
  T/C: 54 % of control
endpoint: median tumor weight (est.), dose: 32.0 mg/kg/injection, schedule: Q07DX005 (ip), vehicle: acid diluted with saline
  T/C: 31 % of control
[3]
  T/C: 179 % of control
endpoint: median tumor weight (est.), dose: 50.0 mg/kg/injection, schedule: Q07DX005 (ip), vehicle: saline with Tween-80
  T/C: 73 % of control
endpoint: median tumor weight (est.), dose: 50.0 mg/kg/injection, schedule: Q07DX006 (ip), vehicle: saline with Tween-80
  T/C: 50 % of control
endpoint: median tumor weight (est.), dose: 64.0 mg/kg/injection, schedule: Q07DX005 (ip), vehicle: acid diluted with saline
  T/C: 39 % of control
[4]
  T/C: 212 % of control and 76 % of control
[1]
  T/C: 62 % of control
endpoint: median tumor weight (est.), dose: 100.0 mg/kg/injection, schedule: Q07DX006 (ip), vehicle: saline with Tween-80
  T/C: 78 % of control
endpoint: median tumor weight (est.), dose: 128.0 mg/kg/injection, schedule: Q07DX005 (ip), vehicle: acid diluted with saline
  T/C: 53 % of control
[2]
  T/C: 44 % of control
endpoint: median tumor weight (est.), dose: 200.0 mg/kg/injection, schedule: Q07DX006 (ip), vehicle: saline with Tween-80
  T/C: 5 % of control
endpoint: median tumor weight (est.), dose: 256.0 mg/kg/injection, schedule: Q07DX005 (ip), vehicle: acid diluted with saline
  T/C: 29 % of control
endpoint: median tumor weight change, dose: 100.0 mg/kg/injection, schedule: Q01DX001 (ip), vehicle: acid diluted with saline
  T/C: 103 % of control and 104 % of control
endpoint: median tumor weight change, dose: 200.0 mg/kg/injection, schedule: Q01DX001 (ip), vehicle: acid diluted with saline
  T/C: 61 % of control
endpoint: median tumor weight change, dose: 800.0 mg/kg/injection, schedule: Q01DX001 (ip), vehicle: acid diluted with saline
  T/C: 37 % of control and 51 % of control

## Cn1c(=O)c2ncnnc2n(C)c1=O
endpoint: median tumor weight (est.), dose: 4.7 mg/kg/injection, schedule: Q07DX005 (ip), vehicle: Klucel (hydroxypropylcellulose) (HPC)
  T/C: 59 % of control
endpoint: median tumor weight (est.), dose: 9.4 mg/kg/injection, schedule: Q07DX005 (ip), vehicle: Klucel (hydroxypropylcellulose) (HPC)
  T/C: 63 % of control
endpoint: median tumor weight (est.), dose: 18.8 mg/kg/injection, schedule: Q07DX005 (ip), vehicle: Klucel (hydroxypropylcellulose) (HPC)
  T/C: 52 % of control

## CCOC(=O)C(CC(C)C)NC(=O)C(Cc1ccc(N(CCCl)CCCl)cc1)NC(C)=O (stereo not given)
endpoint: median tumor weight (est.), dose: 8.0 mg/kg/injection, schedule: Q07DX005 (ip), vehicle: saline with Tween-80
  T/C: 112 % of control
[3]
  T/C: 49 % of control and 58 % of control
[4]
  T/C: 9 % of control

## CC(=O)Nc1ccc(Nc2ccc(C(=C3C=CC(=[N+](C)CCC#N)C=C3)c3ccc(N(C)CCC#N)cc3)cc2)cc1
endpoint: median tumor weight change, dose: 125.0 mg/kg/injection, schedule: Q01DX001 (ip), vehicle: saline with Tween-80
  T/C: 67 % of control

## N=c1nc2n(cc1F)[C@@H]1O[C@H](CO)[C@@H](O)[C@@H]1O2
[5]
  T/C: 25 % of control
[6]
  T/C: 71 % of control
endpoint: median tumor weight (est.), dose: 50.0 mg/kg/injection, schedule: Q07DX005 (ip), vehicle: suspension in saline
  T/C: 86 % of control
endpoint: median tumor weight (est.), dose: 100.0 mg/kg/injection, schedule: Q07DX005 (ip), vehicle: saline
  T/C: 68 % of control
endpoint: median tumor weight (est.), dose: 100.0 mg/kg/injection, schedule: Q07DX005 (ip), vehicle: suspension in saline
  T/C: 57 % of control
endpoint: median tumor weight (est.), dose: 200.0 mg/kg/injection, schedule: Q07DX005 (ip), vehicle: saline
  T/C: 56 % of control
endpoint: median tumor weight (est.), dose: 200.0 mg/kg/injection, schedule: Q07DX005 (ip), vehicle: suspension in saline
  T/C: 63 % of control
endpoint: median tumor weight (est.), dose: 400.0 mg/kg/injection, schedule: Q07DX005 (ip), vehicle: saline
  T/C: 33 % of control
endpoint: median tumor weight (est.), dose: 400.0 mg/kg/injection, schedule: Q07DX005 (ip), vehicle: suspension in saline
  T/C: 69 % of control
endpoint: median tumor weight (est.), dose: 800.0 mg/kg/injection, schedule: Q07DX005 (ip), vehicle: suspension in saline
  T/C: 58 % of control
endpoint: median tumor weight (est.), dose: 1600.0 mg/kg/injection, schedule: Q07DX005 (ip), vehicle: suspension in saline
  T/C: 72 % of control

## O=S(=O)(SC(S(=O)(=O)c1ccccc1)S(=O)(=O)c1ccccc1)c1ccccc1
endpoint: median tumor weight (est.), dose: 25.0 mg/kg/injection, schedule: Q07DX005 (ip), vehicle: Klucel (hydroxypropylcellulose) (HPC)
  T/C: 55 % of control
endpoint: median tumor weight (est.), dose: 50.0 mg/kg/injection, schedule: Q07DX005 (ip), vehicle: Klucel (hydroxypropylcellulose) (HPC)
  T/C: 90 % of control
endpoint: median tumor weight (est.), dose: 200.0 mg/kg/injection, schedule: Q07DX005 (ip), vehicle: Klucel (hydroxypropylcellulose) (HPC)
  T/C: 112 % of control
endpoint: median tumor weight (est.), dose: 400.0 mg/kg/injection, schedule: Q07DX005 (ip), vehicle: Klucel (hydroxypropylcellulose) (HPC)
  T/C: 70 % of control

## O=C(O)C(CSC(c1ccccc1)(c1ccccc1)c1ccccc1)N=Cc1cccs1 (stereo not given)
endpoint: median tumor weight change, dose: 62.5 mg/kg/injection, schedule: Q01DX001 (ip), vehicle: suspension in saline
  T/C: 112 % of control
endpoint: median tumor weight change, dose: 125.0 mg/kg/injection, schedule: Q01DX001 (ip), vehicle: suspension in saline
  T/C: 111 % of control
endpoint: median tumor weight change, dose: 250.0 mg/kg/injection, schedule: Q01DX001 (ip), vehicle: saline
  T/C: 64 % of control
endpoint: median tumor weight change, dose: 250.0 mg/kg/injection, schedule: Q01DX001 (ip), vehicle: suspension in saline
  T/C: 95 % of control

## S=C1CCCCN1
endpoint: median tumor weight change, dose: 37.5 mg/kg/injection, schedule: Q01DX001 (ip), vehicle: distilled water + Tween-80 + alcohol
  T/C: 73 % of control
endpoint: median tumor weight change, dose: 75.0 mg/kg/injection, schedule: Q01DX001 (ip), vehicle: distilled water + Tween-80 + alcohol
  T/C: 111 % of control
endpoint: median tumor weight change, dose: 150.0 mg/kg/injection, schedule: Q01DX001 (ip), vehicle: distilled water + Tween-80 + alcohol
  T/C: 86 % of control

## COc1ccc(Cl)[n+]([O-])n1
endpoint: median tumor weight change, dose: 125.0 mg/kg/injection, schedule: Q01DX001 (ip), vehicle: Klucel (hydroxypropylcellulose) (HPC)
  T/C: 79 % of control

## COC1=NCN=C2SC=C(N)N=C12
endpoint: median tumor weight (est.), dose: 6.25 mg/kg/injection, schedule: Q07DX005 (ip), vehicle: saline
  T/C: 208 % of control
[5]
  T/C: 76 % of control
endpoint: median tumor weight (est.), dose: 25.0 mg/kg/injection, schedule: Q07DX005 (ip), vehicle: saline
  T/C: 107 % of control
[6]
  T/C: 156 % of control
